In one assay the test system is rat aortic ring. In words: Angiogenesis inhibitory activity in vitro, rat aortic ring model (microvessel formation). The class given is cell-based. As to conditions: 192 h, microvessel area following eight days in culture. The procedure:
Angiogenosis inhibitory activity was measured in vitro using the rat aortic ring model of angiogenesis as described by Nicosia, R. F. and Ottinetti in "Laboratory Investigation", vol. 63, p. 115, 1990. The ability of compounds to inhibit microvessel formation was compared to velicle-treatedcontrol rings.

In another assay the test system is angiogenesis. The assay can be described thus: In vivo angiogenesis inhibitory activity, Matrigel model. Details: species or system warm-blooded animal. As to conditions: po, administered orally. The procedure:
The in vivo angiogenesis inhibitory activity was measured using the Matrigel model, as described in U.S. Pat. No. 5,382,514. Briefly, a liquid, containing extracts of murine basement membrane and an angiogenic growth factor (e.g. VEGF, bFGF, aFGF), was injected in a warm-blooded animal where it fonns a gel matrix. After a period of time, the gel is recovered from the anmimal and angiogenesis is quantitated. The test compounds were administered orally at a dose of 0.1 mg/kg.

The text below walks through data of patent publication US5985878A, “Angiogenesis inhibiting pyridazinamines” (Janssen Pharmaceuticals, N.V., priority 1996, dated 1999).

The IC50 is the concentration at which inhibition is half-maximal. `Cc1nsc(-c2ccc(N3CC[C@@H](c4cccc(C(F)(F)F)c4)[C@@H](C)C3)nn2)n1` (relative stereo) [Compound 108] gave an IC50 in the assay with rat aortic ring of 0.2 nM.

As for `Cc1nsc(-c2ccc(N3CCN(c4cccc(C(F)(F)F)c4)CC3)nn2)n1` [Compound 1, 3-(3-methyl-1,2,4-thiadiazol-5-yl)-6-[4-[3-(trifluoromethyl)phenyl]-1-piperazinyl]pyridazine], the IC50 in the assay on rat aortic ring amounted to 0.3 nM.

For orientation: inhibition in vivo means how much of the control response was suppressed. The low end stands for little suppression, the high end for strong suppression. Regarding `Cc1nsc(-c2ccc(N3CCN(c4cccc(Cl)c4)CC3)nn2)n1` [Compound 2, 3-[4-(3-chlorophenyl)-1-piperazinyl]-6-(3-methyl-1,2,4-thiadiazol-5-yl)pyridazine], 0.6 nM corresponded to half-maximal inhibition in the assay with rat aortic ring (IC50). The inhibition in vivo at 0.1 mg/kg in the assay with angiogenesis was more than 70%.

In the assay with rat aortic ring, `Cc1nsc(-c2ccc(N3CCN(c4cccc(Cl)c4)C(C)C3)nn2)n1` (stereo not shown) [Compound 13] gave a half-inhibitory concentration (IC50) of 0.8 nM.

Regarding `Cc1nsc(-c2ccc(N3CCN(c4cc(Cl)cc(Cl)c4)CC3)nn2)n1` [Compound 23], the IC50 in the assay on rat aortic ring was found to be 0.05 nM.

On to `Cc1nsc(-c2ccc(N3CCN(c4cccc(Cl)c4Cl)CC3)nn2)n1` [Compound 24], for which, in the assay on rat aortic ring, it took 0.3 nM to reach half-maximal inhibition (IC50). This IC50 is about 6-fold higher than that of the compound before.

`Cc1nsc(-c2ccc(N3CCN(c4cc(Cl)ccc4Cl)CC3)nn2)n1` [Compound 27]: in the assay with rat aortic ring, the IC50 worked out at 0.2 nM.

`Cc1nsc(-c2ccc(N3CCC(c4cccc(C(F)(F)F)c4)C3)nn2)n1` (stereo not shown) [Compound 30] came in with an inhibition in vivo at 0.1 mg/kg in the assay on angiogenesis of more than 70%.

In the case of `Cc1nsc(-c2ccc(N3CCC(c4cccc(C(F)(F)F)c4)CC3)nn2)n1` [Compound 31, 3-(3-methyl-1,2,4-thiadiazol-5-yl)-6-[4-[3-(trifluoromethyl)phenyl]-1-piperidinyl]pyridazine], half-maximal inhibition in the assay on rat aortic ring (IC50) was put at 0.052 nM. This compound also showed an inhibition in vivo at 0.1 mg/kg with angiogenesis of more than 70%.

With `Cc1nsc(-c2ccc(N3CCCC(c4cccc(C(F)(F)F)c4)CC3)nn2)n1` (stereo not shown) [Compound 32], it took 0.9 nM to reach half-maximal inhibition in the assay on rat aortic ring (IC50).

For the compound `Cc1nsc(-c2ccc(N3CCN(C4CCN(c5cccc(C(F)(F)F)c5)CC4)CC3)nn2)n1` [Compound 44], the IC50 in the assay with rat aortic ring turned out to be 0.7 nM.

As to `Cc1nsc(-c2ccc(N3CCC(Nc4cccc(C(F)(F)F)c4)CC3)nn2)n1` [Compound 47], the inhibition in vivo at 0.1 mg/kg with angiogenesis is more than 70%.

Turning to `Cc1nsc(-c2ccc(N3CCC(OCc4cccc(C(F)(F)F)c4)CC3)nn2)n1` [Compound 48], the IC50 with rat aortic ring amounted to 0.5 nM. This counts as sub-nanomolar.

As to `Cc1nsc(-c2ccc(N3CCC(N4CCN(c5cccc(C(F)(F)F)c5)CC4)CC3)nn2)n1` [Compound 53, 3-(3-methyl-1,2,4-thiadiazol-5-yl)-6-[4-[4-[3-(trifluoromethyl)phenyl]-1-piperazinyl]-1-piperidinyl]pyridazine], in the assay on rat aortic ring, the IC50 came to 0.3 nM. The compound also returned an inhibition in vivo at 0.1 mg/kg in the assay with angiogenesis of more than 70%.

In the case of `Cc1nsc(-c2ccc(N3CCC(OC(c4ccccc4)c4ccccc4)CC3)nn2)n1` [Compound 54], the inhibition in vivo at 0.1 mg/kg with angiogenesis is more than 70%.

In turn, `Cc1nsc(-c2ccc(N3CCC(COc4cccc(Cl)c4)CC3)nn2)n1` [Compound 56] gave an IC50 in the assay on rat aortic ring of 0.9 nM.

For the compound `Cc1nsc(-c2ccc(N3CC=C(c4cccc(C(F)(F)F)c4)CC3)nn2)n1` [Compound 66], it took 0.3 nM to reach half-maximal inhibition with rat aortic ring (IC50).

Regarding `Cc1nsc(-c2ccc(N3CCN(c4cccc(Br)c4)CC3)nn2)n1` [Compound 72], the IC50 in the assay on rat aortic ring was 0.5 nM.

As to `Cc1nsc(-c2ccc(N3CCN(c4cc(C(F)(F)F)cc(C(F)(F)F)c4)CC3)nn2)n1` [Compound 74], the IC50 with rat aortic ring was 0.05 nM. In addition, in the assay on angiogenesis, the inhibition in vivo at 0.1 mg/kg was more than 70%.

Turning to `COc1ccc(Cl)c(N2CCN(c3ccc(-c4nc(C)ns4)nn3)CC2)c1` [Compound 75], the IC50 with rat aortic ring was 0.6 nM. The same compound came in with an inhibition in vivo at 0.1 mg/kg with angiogenesis of more than 70%.

Compound `Cc1nsc(-c2ccc(N3CCN(c4ccccc4C(F)(F)F)CC3)nn2)n1` [Compound 76] came in with an IC50 in the assay with rat aortic ring of 0.2 nM.

For `Cc1nsc(-c2ccc(N3CCN(c4cc(Cl)c(Cl)cc4Cl)CC3)nn2)n1` [Compound 82], the half-inhibitory concentration (IC50) with rat aortic ring is 0.8 nM. The inhibition in vivo at 0.1 mg/kg with angiogenesis was more than 70%.

The compound `Cc1nsc(-c2ccc(N3CCN(c4ccc(Br)cc4[N+](=O)[O-])CC3)nn2)n1` [Compound 85] had an IC50 in the assay on rat aortic ring of less than 0.1 nM.

Turning to `Cc1nsc(-c2ccc(N3CCN(c4ccc(Br)c(C(F)(F)F)c4)CC3)nn2)n1` [Compound 88, 3-[4-[4-bromo-3-(trifluoromethyl)phenyl]-1-piperazinyl]-6-(3-methyl-1,2,4-thiadiazol-5-yl)pyridazine], in the assay on angiogenesis, the inhibition in vivo at 0.1 mg/kg is more than 70%.

In the assay with rat aortic ring, `Cc1nsc(-c2ccc(N3CCC(c4cc(C(F)(F)F)cc(C(F)(F)F)c4)CC3)nn2)n1` [Compound 111] yielded an IC50 of 0.2 nM.

Consider `Cc1nsc(-c2ccc(N3CCC(C(=O)c4cccc(C(F)(F)F)c4)CC3)nn2)n1` [Compound 130], for which the IC50 in the assay on rat aortic ring amounted to 0.3 nM. The IC50 values of the last two compounds are within 1.5-fold of each other.

In the assay on rat aortic ring, `Cc1nsc(-c2ccc(N3CCC(Cc4cccc(C(F)(F)F)c4)CC3)nn2)n1` [Compound 132] had an IC50 of 0.2 nM.

As for `Cc1nsc(-c2ccc(N3CCC(C(O)c4cccc(C(F)(F)F)c4)CC3)nn2)n1` (stereo not shown) [Compound 134], the concentration for half-maximal inhibition (IC50) with rat aortic ring is 0.6 nM. The compound also returned an inhibition in vivo at 0.1 mg/kg with angiogenesis of more than 70%.

On to `Cc1nsc(-c2ccc(N3CCC(C(=O)c4cccc(Cl)c4)CC3)nn2)n1` [Compound 135], for which the IC50 with rat aortic ring turned out to be 0.5 nM.

`Cc1nsc(-c2ccc(N3CCC(N(C)Cc4cccc(C(F)(F)F)c4)CC3)nn2)n1` [Compound 137] had an IC50 in the assay on rat aortic ring of 0.5 nM.

On to `Cc1nsc(-c2ccc(N3CCC(C(C#N)c4cccc(Cl)c4)CC3)nn2)n1` (stereo not shown) [Compound 138], for which, in the assay with rat aortic ring, the 50% inhibitory concentration (IC50) was 0.2 nM. Also, the inhibition in vivo at 0.1 mg/kg in the assay with angiogenesis is more than 70%.

In the assay on rat aortic ring, `Cc1nsc(-c2ccc(N3CCC(Sc4cccc(Cl)c4)CC3)nn2)n1` [Compound 139] showed an IC50 of 0.5 nM. That is a sub-nanomolar value.

In turn, `Cc1nsc(-c2ccc(N3CCC(N(C)c4cccc(C(F)(F)F)c4)CC3)nn2)n1` [Compound 142] had an IC50 with rat aortic ring of 0.3 nM. This IC50 is about 1.7-fold lower than that of the compound before.

In turn, `Cc1nsc(-c2ccc(N3CCC(N4CCN(c5cc(Cl)cc(Cl)c5)CC4)CC3)nn2)n1` [Compound 160] yielded an IC50 in the assay on rat aortic ring of 0.2 nM.

In turn, `Cc1nsc(-c2ccc(N3CCC(N4CCN(c5cc(C(F)(F)F)cc(C(F)(F)F)c5)CC4)CC3)nn2)n1` [Compound 161] registered an IC50 with rat aortic ring of less than 0.1 nM.

On to `Cc1nsc(-c2ccc(N3CCC(Nc4cccc(C(F)(F)F)c4)C3)nn2)n1` (stereo not shown) [Compound 169], for which, in the assay with rat aortic ring, half-maximal inhibition (IC50) required 0.8 nM. This counts as sub-nanomolar.

Compound `Cc1nsc(-c2ccc(N3C4CCC3CC(c3cccc(C(F)(F)F)c3)C4)nn2)n1` (stereo not shown) [Compound 177] came in with an IC50 in the assay with rat aortic ring of 0.7 nM. This compound also returned an inhibition in vivo at 0.1 mg/kg in the assay on angiogenesis of more than 70%.
